According to patent publication US6582940B1, “Method for producing calcium pantothenate” (Daiichi Fine Chemical Co., Ltd., priority 1998, dated 2003):

Assay: hygroscopicity analysis (desiccator, relative humidity 82%, 40° C., 24 hours)
Assay type: physicochemical
Settings: for amount of absorbed moisture: 1 g sample, relative humidity 82% (saturated aqueous potassium chloride), after 24 hours; for deliquescence in the hygroscopicity analysis: relative humidity 82%, 24 hours, macroscopic observation
Procedure: The term “nondeliquescent” used in the specification means that a substance is nonhygroscopic (in general, an amount of absorbed moisture is 5% or less at 40° C. under 82% of relative humidity after 24 hours), or not suffered from deliquescence by moisture absorption. More specifically, the term means that no deliquescence is macroscopically observed in a part or whole surface of a solid calcium pantothenate at 40° C. under 82% of the relative humidity within 24 hours. The calcium pantothenate of the present invention comprising an amount of a crystalline component sufficient to prevent deliquescence is an example of the nondeliquescent and crystalline calcium pantothenate.
This product was further dried by using a normal-pressure warm-air dryer at 80° C. for 30 minutes and milled in a mortar, and then sized through a filter No.83 and subjected to a hygroscopicity analysis. The sample (1 g) was placed in a desiccator adjusted to relative humidity of 82% with a saturated aqueous solution of potassium chloride at 40° C., and an amount of absorbed moisture after 24 hours was determined. […] An amorphous was dried in the same manner and the amount of absorbed moisture was determined under the same conditions. […] Moreover, the powder X-ray diffraction analysis of the aforementioned product gave the characteristic peak indicated by the arrow, which verified that the product was a crystalline substance containing the monohydrate (FIG. 1).

| Substance | amount of absorbed moisture [%] | deliquescence in the hygroscopicity analysis |
| --- | --- | --- |
| calcium pantothenate [Example 3] | 0.8 | no deliquescence was observed |
| calcium pantothenate [Example 2] | 0.7 | no deliquescence was observed |
| monocalcium bis[(R)-N-(2,4-dihydroxy-3,3-dimethylbutyryl)-β-alaninate] [amorphous calcium pantothenate, reference compound] | 7.0 | macroscopically apparent deliquescence of the surface was observed |
